# Active and inactive are the calls of the source.
# Legend:
# [1] = biological target: T1, fMet-Leu-Phe receptor (Homo sapiens, UniProt P21462); experiment: formyl peptide receptor binders – dose response (AID 519); format: functional
# T1 sequence (P21462 whole entry): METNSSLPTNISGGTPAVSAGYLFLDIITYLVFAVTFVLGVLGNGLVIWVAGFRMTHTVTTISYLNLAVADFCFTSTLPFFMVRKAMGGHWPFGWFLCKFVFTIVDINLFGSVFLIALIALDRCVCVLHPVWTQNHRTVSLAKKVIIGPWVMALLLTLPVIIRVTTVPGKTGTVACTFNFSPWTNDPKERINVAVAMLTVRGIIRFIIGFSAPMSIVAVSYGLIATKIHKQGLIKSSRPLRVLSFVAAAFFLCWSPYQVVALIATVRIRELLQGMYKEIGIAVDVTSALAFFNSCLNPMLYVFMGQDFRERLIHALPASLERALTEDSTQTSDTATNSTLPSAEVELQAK
# [2] = A cytotoxicity screen of small molecule inhibitors of the PhoP region in Salmonella typhi identified in the primary screen. [Related pubchem assays: 1850, 1864, 1985 ]; format: functional
# [3] = blockers of HIV-1 envelope-mediated cell-cell fusion – cherry-pick, dose response (AID 652057); format: functional, cell-based
# [4] = viability loss in CEM21 cells – cell-based, CellTiter-Glo luminescence, cherry-picked, cytotoxicity control for viral fusion inhibitor project, dose response (AID 652042); format: functional;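 further: potency for signal decrease meaning cytotoxicity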
# [5] = blockers of HIV-1 ZM109 envelope-driven cell-cell fusion – HeLa effector, CEM target cells, luciferase, cherry-pick, dose response (AID 652058); format: functional, cell-based;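 further: luciferase signal from HIV-1 Env mediated cell-cell fusion of effector and target cells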
# [6] = off-target signal loss in HeLa-CEM21 co-culture – HeLa F-luc CTL cells, cherry-picked, counter-screen for HIV-1 Env fusion inhibitor project, dose response (AID 652040); format: functional, cell-based;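 further: potency for signal decrease marking cytotoxic or nonspecific inhibition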
# [7] = HIV-1 AD8 envelope cell-cell fusion blockers – cherry-pick, dose response (AID 652062); format: functional, cell-based;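 further: luciferase signal from cell-cell fusion driven by HIV-1 clade B AD8 Env; potency is for inhibitors of fusion seen as a drop in luminescence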
# [8] = test system: HEK293; experiment: cells; conditions: Homo sapiens
# [9] = test system: HEK293; experiment: cells; conditions: Homo sapiens; remark: listed apart in the source
# [10] = biological target: Peroxisome proliferator-activated receptor gamma/Nuclear receptor coactivator 2 (Homo sapiens, UniProt P37231); format: functional;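 further: agonist potency for raising coactivator recruitment to the receptor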
# [11] = biological target: Peroxisome proliferator-activated receptor gamma/Nuclear receptor coactivator 1 (Homo sapiens, UniProt P37231); format: functional;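 further: agonist potency as compounds enhance coactivator SRC-1 recruitment to PPARgamma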
# [12] = biological target: Peroxisome proliferator-activated receptor gamma/Nuclear receptor coactivator 3 (Homo sapiens, UniProt P37231); format: functional;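 further: agonist potency for raising coactivator recruitment to the receptor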
# [13] = biological target: T2, Cytochrome P450 1A2 (Homo sapiens, UniProt P05177);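 further: PubChem cytochrome P450 panel assay, CYP1A2 panel member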
# T2 sequence (P05177 whole entry): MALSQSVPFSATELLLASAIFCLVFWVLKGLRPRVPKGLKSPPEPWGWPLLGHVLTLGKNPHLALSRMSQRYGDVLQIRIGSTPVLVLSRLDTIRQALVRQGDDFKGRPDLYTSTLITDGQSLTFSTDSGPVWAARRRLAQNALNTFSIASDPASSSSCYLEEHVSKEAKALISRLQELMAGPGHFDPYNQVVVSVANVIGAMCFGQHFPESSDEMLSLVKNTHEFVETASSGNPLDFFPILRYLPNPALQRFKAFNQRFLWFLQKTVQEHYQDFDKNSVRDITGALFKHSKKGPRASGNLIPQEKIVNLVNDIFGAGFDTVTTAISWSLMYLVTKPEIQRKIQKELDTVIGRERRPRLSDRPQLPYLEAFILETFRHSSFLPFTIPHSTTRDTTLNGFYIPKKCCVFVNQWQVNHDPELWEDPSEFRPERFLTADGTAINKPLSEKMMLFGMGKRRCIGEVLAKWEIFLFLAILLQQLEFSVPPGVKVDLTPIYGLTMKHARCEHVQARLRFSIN
# [14] = NIH-3T3 fibroblast cytotoxicity, dose response, cytotoxicity control, cell-based, fluorescence, Alamar Blue, secondary assay (AID 2327); format: functional;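 further: NIH-3T3 mouse fibroblasts cultured with fluconazole at 8 µg/mL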
# [15] = fluconazole-exposed Candida albicans growth modulators – fluorescence, retest, confirmation (AID 2467); format: functional, cell-based
# [16] = biological target: Dual specificity tyrosine-phosphorylation-regulated kinase 1A (Rattus norvegicus, UniProt Q63470); format: biochemical, Homo sapiens
# [17] = cells; format: functional, cell-based
# [18] = biological target: T3, Nuclear receptor subfamily 0 group B member 1 (Homo sapiens, UniProt P51843); format: functional, cell-based;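 further: HEK293T cells transfected with SF-1 and DAX-1 plus StAR promoter luciferase reporter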
# T3 sequence (P51843 whole entry): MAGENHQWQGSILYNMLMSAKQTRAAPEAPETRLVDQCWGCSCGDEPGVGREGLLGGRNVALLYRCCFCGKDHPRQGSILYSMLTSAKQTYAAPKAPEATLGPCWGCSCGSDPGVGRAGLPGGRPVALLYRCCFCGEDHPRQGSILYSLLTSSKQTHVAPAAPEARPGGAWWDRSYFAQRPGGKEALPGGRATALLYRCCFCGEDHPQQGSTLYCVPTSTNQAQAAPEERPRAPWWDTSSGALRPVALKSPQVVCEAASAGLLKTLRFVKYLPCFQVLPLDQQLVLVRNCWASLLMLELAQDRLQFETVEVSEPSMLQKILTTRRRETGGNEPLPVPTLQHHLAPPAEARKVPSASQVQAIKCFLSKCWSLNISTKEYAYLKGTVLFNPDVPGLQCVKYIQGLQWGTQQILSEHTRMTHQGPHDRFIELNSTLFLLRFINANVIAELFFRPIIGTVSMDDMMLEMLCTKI
# [19] = THP-1 cell cytotoxicity, dose response, cytotoxicity control for non-replicating M. tuberculosis project (AID 489025); format: functional
# [20] = cells; format: functional
# [21] = Trypanosoma cruzi growth suppression in host cells – NIH3T3 host cells, beta-gal luminescence, confirmation (AID 2044); format: functional, cell-based;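 further: intracellular parasites grown in NIH/3T3 mouse fibroblasts as host cells; luminescent beta-galactosidase reporter signal from transgenic T. cruzi replicating inside host cells; inhibitors lower the luminescence signal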
# [22] = NIH3T3 cell viability loss – ATP luminescence, mouse fibroblasts, counter-screen, dose response (AID 2010); format: functional, cell-based;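 further: cells exposed to compound for about 90 hours before reading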
# [23] = biological target: T4, Sentrin-specific protease 8 (Homo sapiens, UniProt Q96LD8); format: functional
# T4 sequence (Q96LD8 whole entry): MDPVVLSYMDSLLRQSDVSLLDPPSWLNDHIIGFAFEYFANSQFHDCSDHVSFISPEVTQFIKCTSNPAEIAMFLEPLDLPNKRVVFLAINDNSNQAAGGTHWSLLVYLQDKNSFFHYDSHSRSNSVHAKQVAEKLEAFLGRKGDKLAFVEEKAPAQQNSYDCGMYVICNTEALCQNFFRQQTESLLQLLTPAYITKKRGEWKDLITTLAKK
# [24] = biological target: T4, Sentrin-specific protease 8; format: functional; remark: listed apart in the source
# [25] = biological target: T5, Caspase-6 (Homo sapiens, UniProt P55212); experiment: inhibition of CASP6 peptide cleavage – biochemical, VEID-R110 fluorescence, cherry-pick, dose response (AID 720632)
# T5 sequence (P55212 whole entry): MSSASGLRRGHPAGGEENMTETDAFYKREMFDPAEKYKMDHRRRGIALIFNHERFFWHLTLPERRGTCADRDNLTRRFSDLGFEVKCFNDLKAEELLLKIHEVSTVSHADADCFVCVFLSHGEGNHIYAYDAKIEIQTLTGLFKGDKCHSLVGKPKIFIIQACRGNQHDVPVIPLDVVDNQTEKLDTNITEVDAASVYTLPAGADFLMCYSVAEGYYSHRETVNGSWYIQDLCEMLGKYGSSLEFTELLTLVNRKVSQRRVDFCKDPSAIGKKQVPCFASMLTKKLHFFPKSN
# [26] = growth inhibition of yeast DHODH-expressing 3D7 parasites – SYBR Green, dry powder samples, dose response (AID 1159570); format: functional, cell-based;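 further: parasite growth measured after 72 hours of compound exposure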
# [27] = P. falciparum Dd2 growth inhibitors, dose response, SYBR Green, cherry-picked samples (AID 1159567); format: functional, cell-based
# [28] = Dd2 malaria parasite growth inhibition potency – SYBR Green, dry powder samples, dose response (AID 1159566); format: functional, cell-based;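 further: potency for growth inhibition with lower SYBR green DNA signal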
# [29] = growth inhibition of PfATP4-mutant resistant parasites – NITD609-resistant line, SYBR Green, dry powder, dose response (AID 1159571); format: functional, cell-based;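 further: parasites synchronized at ring stage by sorbitol before testing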
# [30] = biological target: Induced myeloid leukemia cell differentiation protein Mcl-1 (Homo sapiens, UniProt Q07820); format: functional
# [31] = biological target: Trypsin (Sus scrofa, UniProt P00761); experiment: trypsin protease activity blockade – biochemical, quenched peptide fluorescence, cherry-pick, selectivity assay for Rce1 protease inhibitor project, dose response (AID 488789)
# [32] = biological target: Luciferin 4-monooxygenase (Photinus pyralis, UniProt P08659); experiment: inhibition of purified Photinus pyralis luciferase – biochemical, luminescence, dose response (AID 1891)
# [33] = Luminescence Cell-Based Dose Confirmation HTS to Identify Inhibitors of Platelet Dense Granule Release. [Related pubchem assays: 1663 (Primary HTS), 1678 (Summary of Project)]; format: functional
# Peroxisome proliferator-activated receptor gamma/Nuclear receptor coactivator 2, sequence (P37231 whole entry): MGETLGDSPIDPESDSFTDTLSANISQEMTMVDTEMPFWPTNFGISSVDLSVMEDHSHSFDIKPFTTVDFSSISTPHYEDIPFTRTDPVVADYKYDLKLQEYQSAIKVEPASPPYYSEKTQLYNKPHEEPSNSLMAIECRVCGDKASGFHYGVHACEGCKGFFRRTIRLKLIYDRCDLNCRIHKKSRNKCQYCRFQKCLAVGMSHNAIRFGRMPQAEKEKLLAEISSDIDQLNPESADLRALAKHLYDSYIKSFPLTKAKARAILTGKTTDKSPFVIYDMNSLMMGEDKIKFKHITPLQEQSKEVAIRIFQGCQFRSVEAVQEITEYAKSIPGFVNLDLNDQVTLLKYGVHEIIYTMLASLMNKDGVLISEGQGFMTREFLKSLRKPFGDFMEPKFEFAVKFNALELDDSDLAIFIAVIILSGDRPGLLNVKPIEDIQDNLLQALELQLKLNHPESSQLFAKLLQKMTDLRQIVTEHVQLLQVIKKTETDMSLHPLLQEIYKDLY
# Peroxisome proliferator-activated receptor gamma/Nuclear receptor coactivator 2, sequence (Q15596 whole entry, further chain): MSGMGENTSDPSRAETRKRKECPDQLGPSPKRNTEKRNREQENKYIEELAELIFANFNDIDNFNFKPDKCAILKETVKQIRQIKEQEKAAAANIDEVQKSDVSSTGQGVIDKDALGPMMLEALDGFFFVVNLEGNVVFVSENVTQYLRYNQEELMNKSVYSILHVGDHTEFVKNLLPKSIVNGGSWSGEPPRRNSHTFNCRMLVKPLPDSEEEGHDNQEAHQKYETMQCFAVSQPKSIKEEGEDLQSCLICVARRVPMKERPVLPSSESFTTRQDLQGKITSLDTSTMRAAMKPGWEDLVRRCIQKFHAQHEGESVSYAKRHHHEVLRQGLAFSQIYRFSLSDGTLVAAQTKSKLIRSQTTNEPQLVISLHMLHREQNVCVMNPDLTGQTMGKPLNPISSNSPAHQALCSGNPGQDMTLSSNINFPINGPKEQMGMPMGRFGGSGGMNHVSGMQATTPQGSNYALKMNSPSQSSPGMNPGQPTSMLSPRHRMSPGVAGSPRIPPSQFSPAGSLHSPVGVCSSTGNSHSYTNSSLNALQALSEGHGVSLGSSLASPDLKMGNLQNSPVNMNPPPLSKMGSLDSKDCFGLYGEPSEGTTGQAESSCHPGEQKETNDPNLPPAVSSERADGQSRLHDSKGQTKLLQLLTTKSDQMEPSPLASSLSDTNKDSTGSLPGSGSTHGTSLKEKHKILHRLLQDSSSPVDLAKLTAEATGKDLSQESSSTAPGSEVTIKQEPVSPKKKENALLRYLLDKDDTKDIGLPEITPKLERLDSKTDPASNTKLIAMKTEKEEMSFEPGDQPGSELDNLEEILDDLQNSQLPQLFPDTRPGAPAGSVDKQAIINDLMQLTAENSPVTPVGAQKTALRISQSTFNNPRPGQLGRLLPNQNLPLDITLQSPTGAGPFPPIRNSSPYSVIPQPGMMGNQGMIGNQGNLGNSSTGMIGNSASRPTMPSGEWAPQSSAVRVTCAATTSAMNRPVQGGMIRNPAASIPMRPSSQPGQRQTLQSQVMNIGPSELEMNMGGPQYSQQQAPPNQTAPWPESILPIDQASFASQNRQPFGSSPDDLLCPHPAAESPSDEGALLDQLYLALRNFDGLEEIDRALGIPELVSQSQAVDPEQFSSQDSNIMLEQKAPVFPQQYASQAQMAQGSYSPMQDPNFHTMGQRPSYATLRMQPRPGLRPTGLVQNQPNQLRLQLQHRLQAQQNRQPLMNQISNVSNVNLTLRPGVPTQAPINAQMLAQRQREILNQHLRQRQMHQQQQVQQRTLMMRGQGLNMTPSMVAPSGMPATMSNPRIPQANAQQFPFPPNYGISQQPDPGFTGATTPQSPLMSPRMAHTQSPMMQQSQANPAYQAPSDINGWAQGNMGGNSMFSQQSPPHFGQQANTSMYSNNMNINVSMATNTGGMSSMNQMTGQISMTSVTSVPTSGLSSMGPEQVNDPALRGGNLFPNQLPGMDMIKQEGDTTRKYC
# Peroxisome proliferator-activated receptor gamma/Nuclear receptor coactivator 1, sequence (P37231 whole entry): as the sequence (P37231 whole entry) above
# Peroxisome proliferator-activated receptor gamma/Nuclear receptor coactivator 1, sequence (Q15788 whole entry, further chain): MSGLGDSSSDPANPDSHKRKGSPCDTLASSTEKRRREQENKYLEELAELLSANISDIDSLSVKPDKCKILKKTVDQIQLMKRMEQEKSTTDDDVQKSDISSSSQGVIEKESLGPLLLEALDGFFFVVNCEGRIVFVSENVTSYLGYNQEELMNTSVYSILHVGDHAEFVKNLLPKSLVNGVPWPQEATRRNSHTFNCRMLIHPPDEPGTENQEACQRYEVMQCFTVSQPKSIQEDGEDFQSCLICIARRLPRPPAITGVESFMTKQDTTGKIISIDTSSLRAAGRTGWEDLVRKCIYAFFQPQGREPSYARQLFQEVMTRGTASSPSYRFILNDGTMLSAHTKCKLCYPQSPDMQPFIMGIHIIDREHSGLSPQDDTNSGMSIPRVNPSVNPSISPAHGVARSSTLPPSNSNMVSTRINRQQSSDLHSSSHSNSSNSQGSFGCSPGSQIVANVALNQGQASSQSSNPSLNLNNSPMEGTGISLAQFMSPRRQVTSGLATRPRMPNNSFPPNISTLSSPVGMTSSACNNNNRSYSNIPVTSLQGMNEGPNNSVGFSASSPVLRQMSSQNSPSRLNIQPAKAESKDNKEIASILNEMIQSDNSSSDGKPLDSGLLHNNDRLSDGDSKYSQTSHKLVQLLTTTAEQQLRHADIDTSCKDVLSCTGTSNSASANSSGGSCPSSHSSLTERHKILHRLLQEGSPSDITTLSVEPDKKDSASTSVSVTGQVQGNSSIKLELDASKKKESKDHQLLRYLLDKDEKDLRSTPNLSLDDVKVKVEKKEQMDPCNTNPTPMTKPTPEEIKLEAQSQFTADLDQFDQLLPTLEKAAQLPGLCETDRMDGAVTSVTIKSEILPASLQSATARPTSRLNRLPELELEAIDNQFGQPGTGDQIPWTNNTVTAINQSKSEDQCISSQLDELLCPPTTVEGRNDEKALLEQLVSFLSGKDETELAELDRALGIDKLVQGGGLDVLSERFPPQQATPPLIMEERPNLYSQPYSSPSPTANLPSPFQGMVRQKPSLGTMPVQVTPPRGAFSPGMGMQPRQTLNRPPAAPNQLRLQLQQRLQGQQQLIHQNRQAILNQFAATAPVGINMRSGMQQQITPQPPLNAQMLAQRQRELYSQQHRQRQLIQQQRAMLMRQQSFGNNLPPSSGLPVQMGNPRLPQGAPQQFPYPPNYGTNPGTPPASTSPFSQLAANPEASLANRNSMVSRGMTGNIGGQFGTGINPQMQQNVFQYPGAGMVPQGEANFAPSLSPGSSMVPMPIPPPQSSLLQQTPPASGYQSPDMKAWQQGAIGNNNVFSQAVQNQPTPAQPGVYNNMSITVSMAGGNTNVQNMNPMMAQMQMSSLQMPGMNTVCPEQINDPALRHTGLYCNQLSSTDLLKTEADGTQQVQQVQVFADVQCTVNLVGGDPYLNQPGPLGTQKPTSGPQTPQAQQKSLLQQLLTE
# Trypsin, sequence (P00761 whole entry): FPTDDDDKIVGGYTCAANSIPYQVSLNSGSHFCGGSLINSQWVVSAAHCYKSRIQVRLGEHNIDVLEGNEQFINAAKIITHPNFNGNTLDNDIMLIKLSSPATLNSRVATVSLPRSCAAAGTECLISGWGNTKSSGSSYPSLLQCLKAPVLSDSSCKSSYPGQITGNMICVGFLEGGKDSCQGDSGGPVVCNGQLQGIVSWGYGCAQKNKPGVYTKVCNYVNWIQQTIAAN
# Luciferin 4-monooxygenase, sequence (P08659 whole entry): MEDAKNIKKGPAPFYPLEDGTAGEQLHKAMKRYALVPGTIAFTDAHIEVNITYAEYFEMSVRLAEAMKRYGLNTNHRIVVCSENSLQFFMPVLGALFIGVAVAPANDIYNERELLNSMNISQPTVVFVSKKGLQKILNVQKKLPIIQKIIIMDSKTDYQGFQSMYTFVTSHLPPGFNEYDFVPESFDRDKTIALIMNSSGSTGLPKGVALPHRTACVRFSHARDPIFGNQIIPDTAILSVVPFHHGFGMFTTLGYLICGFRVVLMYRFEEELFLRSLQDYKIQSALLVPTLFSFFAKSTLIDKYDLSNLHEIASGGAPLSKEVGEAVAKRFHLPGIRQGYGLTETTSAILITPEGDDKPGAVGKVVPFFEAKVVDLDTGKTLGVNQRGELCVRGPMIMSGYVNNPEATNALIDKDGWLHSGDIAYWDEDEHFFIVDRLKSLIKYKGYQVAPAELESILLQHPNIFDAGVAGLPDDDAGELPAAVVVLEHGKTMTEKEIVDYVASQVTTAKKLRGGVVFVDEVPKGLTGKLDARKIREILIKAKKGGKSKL
# Induced myeloid leukemia cell differentiation protein Mcl-1, sequence (Q07820 whole entry): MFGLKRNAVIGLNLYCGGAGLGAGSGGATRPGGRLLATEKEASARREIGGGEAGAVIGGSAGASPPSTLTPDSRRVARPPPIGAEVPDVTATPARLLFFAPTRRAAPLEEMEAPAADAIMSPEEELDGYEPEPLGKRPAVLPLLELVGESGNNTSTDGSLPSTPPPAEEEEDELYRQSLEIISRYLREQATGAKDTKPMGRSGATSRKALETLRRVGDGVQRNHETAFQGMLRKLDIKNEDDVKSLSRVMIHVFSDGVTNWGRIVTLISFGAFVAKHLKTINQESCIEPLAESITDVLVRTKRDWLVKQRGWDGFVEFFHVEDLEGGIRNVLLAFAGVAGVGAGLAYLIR
structure (smiles),measurement,setting,value
COCCN1C(=O)C(O)=C(C(=O)c2cccs2)C1c1ccccc1 (stereo not drawn),Ki,[1],> 66.7 µM (inactive)
CC[N+](C)(CC)CCC[n+]1c(-c2ccccc2)c2cc(N)ccc2c2ccc(N)cc21 [PROPIDIUM],EC50,[2],> 50 µM (active)
COc1cccc(Nc2nc(C(N)CCc3ccccc3)cs2)n1 (stereo not drawn),AC50,[3],1.96 µM (active)
same,AC50,[4],17.1 µM (active)
same,AC50,[5],3.98 µM (active)
same,AC50,[6],3.37 µM (active)
same,AC50,[7],3.36 µM (active)
same,EC50,[8],> 59.6 µM (inactive)
same,EC50,[9],> 59.6 µM (inactive)
CCCCNC(=O)CSc1nc2ccccc2c(=O)n1Cc1ccc2c(c1)OCO2,EC50,[10],> 79.4 µM (not active)
same,EC50,[11],> 79.4 µM (not active)
same,EC50,[12],> 79.4 µM (not active)
Cc1cccc(N2CCN(C(=O)C3CCN(c4nnc(-n5cccc5)s4)CC3)CC2C)c1 (stereo not drawn),EC50,[2],> 50 µM (active)
CCN(CC(O)c1cccc(O)c1)C(=O)C12CC3CC(CC(C3)C1)C2 (stereo not drawn),AC50,[3],0.33 µM (active)
same,AC50,[4],46.4 µM (active)
same,AC50,[5],0.415 µM (active)
same,AC50,[6],0.619 µM (active)
same,AC50,[7],3 µM (active)
Brc1ccc(/C=N/c2ccc(Nc3ccccc3)cc2)s1,EC50,[10],> 79.4 µM (not active)
same,EC50,[11],> 79.4 µM (not active)
same,EC50,[12],> 79.4 µM (not active)
COc1ccc(S(=O)(=O)N2CCCCC2)cc1NC(=O)Cc1sc(C)nc1-c1ccc(F)cc1,AC50,[3],0.863 µM (active)
same,AC50,[5],2.59 µM (active)
same,AC50,[6],2.18 µM (active)
same,AC50,[7],6.25 µM (active)
COc1cccc(OC)c1/C(O)=C(\C#N)c1nc2ccccc2[nH]1,Ki,[1],> 66.7 µM (inactive)
same,AC50,[13],12.6 µM (inconclusive)
N[C@@H](Cc1ccc(O)c(I)c1)C(=O)O [IOTYROSINE],Ki,[1],> 66.7 µM (inactive)
CC(=O)c1c(C)[nH]c(C(=O)OCC(=O)NCC(C)C)c1C,EC50,[2],> 50 µM (active)
c1ccc2sc(NN=C3CCCCCC3)nc2c1,EC50,[14],> 150 µM (inactive)
same,EC50,[15],> 38 µM (not active)
same,AC50,[16],3.89 µM (active)
same,IC50,[17],> 67.5 µM (inactive)
same,IC50,[18],> 0.278 µM (active)
CCOC(=O)COc1ccc(/C=C2\NC(=S)N(CC)C2=O)cc1,EC50,[10],> 79.4 µM (not active)
same,EC50,[11],> 79.4 µM (not active)
same,EC50,[12],> 79.4 µM (not active)
same,CC50,[19],> 40 µM (active)
same,IC50,[20],3.34 µM (active)
CN1CCC(OC(=O)c2ccc(Cl)cc2Cl)CC1,EC50,[2],> 50 µM (active)
same,EC50,[21],0.127 µM (active)
same,EC50,[22],> 60 µM (not active)
O=C(COC(=O)c1ccc([N+](=O)[O-])o1)NC1CCS(=O)(=O)C1 (stereo not drawn),IC50,[23],9.9 µM (active)
same,IC50,[24],8.96 µM (active)
same,AC50,[25],39.7 µM (active)
O=C(Nc1ccccc1F)N1CCCCN2[C@H](CO)[C@H](c3ccc(C#Cc4cccnc4)cc3)[C@@H]2C1,AC50,[26],0.452 µM (active)
same,AC50,[27],0.86 µM (active)
same,AC50,[28],0.507 µM (active)
same,AC50,[29],0.504 µM (active)
N=c1oc2cc(O)ccc2cc1C(=O)Nc1nc2ccccc2s1,IC50,[30],3.21 µM (active)
same,AC50,[31],12.4 µM (active)
O=C(O)C1Oc2cc3ccccc3cc2O1,AC50,[25],8.44 µM (active)
O=C1Cc2ccccc2C(=O)N1Cc1cccc(Cl)c1,IC50,[23],> 100 µM (inactive)
same,IC50,[24],0.528 µM (active)
same,AC50,[25],13 µM (active)
O=C(/C=C\Nc1ccc2c(c1)OCO2)c1cccs1,EC50,[32],0.912 µM (active)
same,EC50,[33],6.14 µM (active)
same,IC50,[17],> 67.5 µM (inactive)
same,IC50,[18],> 67.5 µM (inactive)
O=C(CCS(=O)(=O)c1ccccc1)N(CCCN1CCOCC1)c1nc2ccc(F)cc2s1,EC50,[21],2.06 µM (active)
same,EC50,[22],6.18 µM (active)
same,IC50,[17],> 67.5 µM (inactive)
same,IC50,[18],> 67.5 µM (inactive)
